Measured values: patent US7745576B2, “Polypeptides having antimicrobial activity and polynucleotides encoding same” (Novozymes Adenium Biotech A/S, priority 2005, dated 2010)

How the values were obtained:
Format in all cases: cell-based
[1] = test system: Acinetobacter iwoffii ATCC 15309; assay: MIC, NCCLS/CLSI M7-A6 dilution susceptibility test; details: average of two independent evaluations
Protocol: (§1) The antimicrobial peptide shown as amino acids 1 to 21 of SEQ ID NO: 2 was prepared synthetically. The Minimal Inhibitory Concentration (MIC) was determined to test for the antimicrobial activity of Arenicin following the NCCLS guidelines from CLSI (Clinical and Laboratory Standards Institute; formerly known as National Committee for Clinical and Laboratory Standards)—protocol M7-A6, Vol. 20, No. 2: Methods for Dilution Antimicrobial Susceptibility Tests for Bacteria That Grow Aerobically.
(§2) The antimicrobial peptide of the invention was tested against 12 bacterial strains obtained from the American Type Culture Collection (ATCC). The results in Table 1 are average values of two independent evaluations.

[2] = test system: Aeromonas salmonicida ATCC 14174; assay: MIC, NCCLS/CLSI M7-A6 dilution susceptibility test; details: average of two independent evaluations
Protocol: as §1, §2

[3] = test system: Citrobacter freundii ATCC 8090; assay: MIC, NCCLS/CLSI M7-A6 dilution susceptibility test; details: average of two independent evaluations
Protocol: as §1, §2

[4] = test system: Enterobacter aerogenes ATCC 13048; assay: MIC, NCCLS/CLSI M7-A6 dilution susceptibility test; details: average of two independent evaluations
Protocol: as §1, §2

[5] = test system: Enterobacter cloacae ATCC 13047; assay: MIC, NCCLS/CLSI M7-A6 dilution susceptibility test; details: average of two independent evaluations
Protocol: as §1, §2

[6] = test system: Escherichia coli ATCC 25404; assay: MIC, NCCLS/CLSI M7-A6 dilution susceptibility test; details: average of two independent evaluations
Protocol: as §1, §2

[7] = test system: Escherichia coli ATCC 25922; assay: MIC, NCCLS/CLSI M7-A6 dilution susceptibility test; details: average of two independent evaluations
Protocol: as §1, §2

[8] = test system: Moraxella catarrhalis ATCC 25238; assay: MIC, NCCLS/CLSI M7-A6 dilution susceptibility test; details: average of two independent evaluations
Protocol: as §1, §2

[9] = test system: Pseudomonas aeruginosa ATCC 27853; assay: MIC, NCCLS/CLSI M7-A6 dilution susceptibility test; details: average of two independent evaluations
Protocol: as §1, §2

[10] = test system: Pseudomonas aeruginosa ATCC 9027; assay: MIC, NCCLS/CLSI M7-A6 dilution susceptibility test; details: average of two independent evaluations
Protocol: as §1, §2

[11] = test system: Shigella sonnei ATCC 11060; assay: MIC, NCCLS/CLSI M7-A6 dilution susceptibility test; details: average of two independent evaluations
Protocol: as §1, §2

[12] = test system: Stenotrophomonas maltophlila ATCC 13637; assay: MIC, NCCLS/CLSI M7-A6 dilution susceptibility test; details: average of two independent evaluations
Protocol: as §1, §2

[13] = test system: Aspergillus niger ATCC9642; assay: MIC against clinical fungi, PD broth dilution; details: 30° C., approximately 40 hours
Protocol: (§3) Minimal inhibitory concentrations of Arenicin against yeasts and fungi were determined essentially as described by NCCLS/CLSI (clinical and laboratory standards institute).
(§4) In summary, fungal or yeasts suspension of approximately 1 McFarland unit was diluted 1:100 in PD broth (8 g/L potato dextrose) and growth was assayed against serial 2-fold dilutions of Arenicin (0.03-32 micrograms/mL). Assay plates were incubated at 25-27° C. for Candida albicans, Candida tropicalis, Cryptococcus neoformans, Trichophyton mentagrophytes and Epidermophyton floccosum, and at 30° C. for Candida glabrata, Pichia pastoris, Saccharomyces cerevisiae and Aspergillus niger. Growth was recorded visually (naked eye, oblique illumination) after approximately 40 hours of incubation.

[14] = test system: Candida albicans ATCC 10231; assay: MIC against clinical fungi, PD broth dilution; details: 25-27° C., approximately 40 hours
Protocol: as §3, §4

[15] = test system: Candida albicans ATCC 18804; assay: MIC against clinical fungi, PD broth dilution; details: 25-27° C., approximately 40 hours
Protocol: as §3, §4

[16] = test system: Candida albicans ATCC 28517; assay: MIC against clinical fungi, PD broth dilution; details: 25-27° C., approximately 40 hours
Protocol: as §3, §4

[17] = test system: Candida glabrata DSM 11226; assay: MIC against clinical fungi, PD broth dilution; details: 30° C., approximately 40 hours
Protocol: as §3, §4

[18] = test system: Candida tropicalis DSM 11953; assay: MIC against clinical fungi, PD broth dilution; details: 25-27° C., approximately 40 hours
Protocol: as §3, §4

[19] = test system: Cryptococcus neoformans DSM 11959; assay: MIC against clinical fungi, PD broth dilution; details: 25-27° C., approximately 40 hours
Protocol: as §3, §4

[20] = test system: Pichia pastoris ATCC 201178; assay: MIC against clinical fungi, PD broth dilution; details: 30° C., approximately 40 hours
Protocol: as §3, §4

[21] = test system: Pichia pastoris ATCC 20864; assay: MIC against clinical fungi, PD broth dilution; details: 30° C., approximately 40 hours
Protocol: as §3, §4

[22] = test system: Saccharomyces cerevisiae DSM 1333; assay: MIC against clinical fungi, PD broth dilution; details: 30° C., approximately 40 hours
Protocol: as §3, §4

[23] = test system: Trichophyton mentagrophytes DSM 4870; assay: MIC against clinical fungi, PD broth dilution; details: 25-27° C., approximately 40 hours
Protocol: as §3, §4

## Arenicin: antimicrobial polypeptide shown as amino acids 1 to 21 of SEQ ID NO: 2 (Arenicola marina), prepared synthetically (MGYSMNIALVYATVLIGVLHV; listed as Arenicola marina)
[1]
  MIC: 0.25 microgram/mL
[2]
  MIC: 2 micrograms/mL
[3]
  MIC: 1 microgram/mL
[4]
  MIC: 1 microgram/mL
[5]
  MIC: 1 microgram/mL
[6]
  MIC: 0.5 microgram/mL
[7]
  MIC: 0.25 microgram/mL
[8]
  MIC: <0.06 microgram/mL
[9]
  MIC: 0.5 microgram/mL
[10]
  MIC: 1 microgram/mL
[11]
  MIC: 0.5 microgram/mL
[12]
  MIC: 1 microgram/mL
[13]
  MIC: 8 micrograms/mL
[14]
  MIC: 4 micrograms/mL
[15]
  MIC: 8 micrograms/mL
[16]
  MIC: 8 micrograms/mL
[17]
  MIC: 16 micrograms/mL
[18]
  MIC: 2 micrograms/mL
[19]
  MIC: 1 microgram/mL
[20]
  MIC: 4 micrograms/mL
[21]
  MIC: 2 micrograms/mL
[22]
  MIC: 8 micrograms/mL
[23]
  MIC: 8 micrograms/mL
